Active and inactive are the calls of the source.
How the values were obtained:
[1] = Luminescence Cell-Based Dose Retest to Confirm Activators of 5'UTR Stem-Loop Driven Alpha-Synuclein mRNA Translation in H4 Neuroglioblastoma Cells. [Related pubchem assays (depositor defined):AID1813, AID1829]; type: functional
[2] = A cytotoxicity screen of small molecule inhibitors of the PhoP region in Salmonella typhi identified in the primary screen. [Related pubchem assays: 1850, 1864, 1985 ]; type: functional
[3] = Trypanosoma cruzi growth suppression in host cells – NIH3T3 host cells, beta-gal luminescence, confirmation (AID 2044); type: functional, cell-based;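 also: intracellular parasites grown in NIH/3T3 mouse fibroblasts as host cells; luminescent beta-galactosidase reporter signal from transgenic T. cruzi replicating inside host cells; inhibitors lower the luminescence signal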
SUMO-activating enzyme = SUMO-activating enzyme (Homo sapiens, UniProt Q9UBT2); test: blockers of SAE1/SAE2–UBC9 SUMO transfer – biochemical, HTRF, uHTS, primary screen (AID 2006); type: protein-complex assay
Genome polyprotein = Genome polyprotein (dengue virus type 2, UniProt P29990); test: flavivirus cap methylation enzyme inhibition – biochemical, confirmation dose response, primary screen (AID 588689); type: functional
[4] = target: Small ubiquitin-related modifier 2 (Homo sapiens, UniProt P61956); test: SUMO2 binding disruption by SUMO1 hits – biochemical, FRET, human SUMO2, uHTS hits, selectivity assay for SUMO1 interaction inhibitor project, dose response (AID 624384); type: functional; conditions: read-out: IC50_Mean
Caspase-3 = target: T1, Caspase-3 (Homo sapiens, UniProt P42574); test: SAR Analysis of small molecule inhibitors of Sentrin-specific proteases (SENPs) using a Caspase-3 Selectivity assay. [Related pubchem assays (depositor defined):AID2540, AID2599, AID434973, AID489001]; type: functional
T1 sequence (P42574 whole entry): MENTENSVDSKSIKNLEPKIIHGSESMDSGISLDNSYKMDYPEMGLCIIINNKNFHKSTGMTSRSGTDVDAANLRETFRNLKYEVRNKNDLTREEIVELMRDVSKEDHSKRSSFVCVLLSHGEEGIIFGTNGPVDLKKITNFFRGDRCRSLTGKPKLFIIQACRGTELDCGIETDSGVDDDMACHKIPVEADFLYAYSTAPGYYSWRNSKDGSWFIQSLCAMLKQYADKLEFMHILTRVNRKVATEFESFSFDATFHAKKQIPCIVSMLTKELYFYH

[5] = target: T2, Sentrin-specific protease 6 (Homo sapiens, UniProt Q9GZR1); test: SAR Analysis of small molecule inhibitors of Sentrin-specific protease 6 (SENP6) using a Luminescent assay. [Related pubchem assays (depositor defined):AID2582, AID2599]; type: functional
T2 sequence (Q9GZR1 whole entry): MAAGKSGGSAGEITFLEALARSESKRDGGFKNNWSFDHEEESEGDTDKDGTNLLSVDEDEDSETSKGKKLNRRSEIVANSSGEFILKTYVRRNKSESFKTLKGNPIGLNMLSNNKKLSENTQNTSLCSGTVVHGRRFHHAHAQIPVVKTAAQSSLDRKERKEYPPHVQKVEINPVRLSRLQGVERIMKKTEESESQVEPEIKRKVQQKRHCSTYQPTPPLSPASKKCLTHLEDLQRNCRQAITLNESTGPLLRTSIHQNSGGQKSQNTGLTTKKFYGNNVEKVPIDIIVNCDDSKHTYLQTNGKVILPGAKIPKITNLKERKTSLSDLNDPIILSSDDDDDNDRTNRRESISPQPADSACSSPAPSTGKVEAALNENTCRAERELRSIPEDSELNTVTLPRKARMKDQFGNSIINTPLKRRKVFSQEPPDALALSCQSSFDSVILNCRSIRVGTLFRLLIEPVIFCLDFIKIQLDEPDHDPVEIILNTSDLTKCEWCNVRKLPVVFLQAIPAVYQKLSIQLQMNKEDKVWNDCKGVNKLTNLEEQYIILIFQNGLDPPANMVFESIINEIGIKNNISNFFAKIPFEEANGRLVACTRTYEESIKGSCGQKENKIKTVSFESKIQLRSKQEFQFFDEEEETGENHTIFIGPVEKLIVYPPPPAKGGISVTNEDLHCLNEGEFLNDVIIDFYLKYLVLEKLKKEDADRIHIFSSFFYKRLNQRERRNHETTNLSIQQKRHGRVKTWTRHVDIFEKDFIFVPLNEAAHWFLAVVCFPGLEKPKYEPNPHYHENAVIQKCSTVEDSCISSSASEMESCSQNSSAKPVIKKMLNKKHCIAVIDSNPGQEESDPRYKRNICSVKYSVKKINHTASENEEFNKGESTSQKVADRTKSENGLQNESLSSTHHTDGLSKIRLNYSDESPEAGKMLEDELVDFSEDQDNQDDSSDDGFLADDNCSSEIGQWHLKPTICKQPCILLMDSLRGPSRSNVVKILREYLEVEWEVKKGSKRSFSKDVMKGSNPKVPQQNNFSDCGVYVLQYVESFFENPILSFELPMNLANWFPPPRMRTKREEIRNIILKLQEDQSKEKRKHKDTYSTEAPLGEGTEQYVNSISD

[6] = target: T3, Mannose-6-phosphate isomerase (Homo sapiens, UniProt P34949); test: MPI enzyme activity inhibition – biochemical, fluorescence intensity, coupled assay, primary screen (AID 1209)
T3 sequence (P34949 whole entry): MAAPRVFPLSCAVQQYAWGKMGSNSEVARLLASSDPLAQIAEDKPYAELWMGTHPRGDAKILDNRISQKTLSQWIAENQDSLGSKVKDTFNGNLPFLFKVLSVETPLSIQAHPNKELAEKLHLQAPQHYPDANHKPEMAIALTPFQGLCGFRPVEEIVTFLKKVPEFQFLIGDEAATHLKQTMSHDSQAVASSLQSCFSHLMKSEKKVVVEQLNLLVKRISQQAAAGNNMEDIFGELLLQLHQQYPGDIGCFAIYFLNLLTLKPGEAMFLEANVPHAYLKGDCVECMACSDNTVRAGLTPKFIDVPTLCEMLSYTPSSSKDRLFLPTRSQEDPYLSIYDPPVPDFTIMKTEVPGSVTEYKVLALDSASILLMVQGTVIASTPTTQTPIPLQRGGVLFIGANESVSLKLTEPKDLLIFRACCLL

[7] = target: T4, Bifunctional protein GlmU (Mycobacterium tuberculosis, UniProt P9WMN3); test: Inhibitors of Mycobacterial Glucosamine-1-phosphate acetyl transferase (GlmU). Secondary screen.; set-up: species or system Mycobacterium tuberculosis H37Rv
T4 sequence (P9WMN3 whole entry): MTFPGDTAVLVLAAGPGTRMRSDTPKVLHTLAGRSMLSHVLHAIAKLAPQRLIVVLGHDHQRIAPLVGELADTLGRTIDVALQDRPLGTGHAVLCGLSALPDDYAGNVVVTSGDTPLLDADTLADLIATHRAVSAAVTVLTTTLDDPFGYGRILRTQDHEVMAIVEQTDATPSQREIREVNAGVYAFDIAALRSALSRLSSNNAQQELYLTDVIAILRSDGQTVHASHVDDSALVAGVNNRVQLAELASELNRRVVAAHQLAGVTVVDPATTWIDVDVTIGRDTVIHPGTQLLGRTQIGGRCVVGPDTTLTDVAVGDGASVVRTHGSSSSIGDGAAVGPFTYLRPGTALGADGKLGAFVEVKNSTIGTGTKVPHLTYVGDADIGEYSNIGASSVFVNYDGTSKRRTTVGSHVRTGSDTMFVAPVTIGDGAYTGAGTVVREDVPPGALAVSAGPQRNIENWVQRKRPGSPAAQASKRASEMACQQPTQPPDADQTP

Sequence of Small ubiquitin-related modifier 2 (P61956 whole entry): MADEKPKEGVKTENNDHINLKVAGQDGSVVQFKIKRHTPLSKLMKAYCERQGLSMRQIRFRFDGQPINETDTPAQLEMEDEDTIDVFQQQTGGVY
Sequence of Genome polyprotein (P29990 2492-3391 limits assumed): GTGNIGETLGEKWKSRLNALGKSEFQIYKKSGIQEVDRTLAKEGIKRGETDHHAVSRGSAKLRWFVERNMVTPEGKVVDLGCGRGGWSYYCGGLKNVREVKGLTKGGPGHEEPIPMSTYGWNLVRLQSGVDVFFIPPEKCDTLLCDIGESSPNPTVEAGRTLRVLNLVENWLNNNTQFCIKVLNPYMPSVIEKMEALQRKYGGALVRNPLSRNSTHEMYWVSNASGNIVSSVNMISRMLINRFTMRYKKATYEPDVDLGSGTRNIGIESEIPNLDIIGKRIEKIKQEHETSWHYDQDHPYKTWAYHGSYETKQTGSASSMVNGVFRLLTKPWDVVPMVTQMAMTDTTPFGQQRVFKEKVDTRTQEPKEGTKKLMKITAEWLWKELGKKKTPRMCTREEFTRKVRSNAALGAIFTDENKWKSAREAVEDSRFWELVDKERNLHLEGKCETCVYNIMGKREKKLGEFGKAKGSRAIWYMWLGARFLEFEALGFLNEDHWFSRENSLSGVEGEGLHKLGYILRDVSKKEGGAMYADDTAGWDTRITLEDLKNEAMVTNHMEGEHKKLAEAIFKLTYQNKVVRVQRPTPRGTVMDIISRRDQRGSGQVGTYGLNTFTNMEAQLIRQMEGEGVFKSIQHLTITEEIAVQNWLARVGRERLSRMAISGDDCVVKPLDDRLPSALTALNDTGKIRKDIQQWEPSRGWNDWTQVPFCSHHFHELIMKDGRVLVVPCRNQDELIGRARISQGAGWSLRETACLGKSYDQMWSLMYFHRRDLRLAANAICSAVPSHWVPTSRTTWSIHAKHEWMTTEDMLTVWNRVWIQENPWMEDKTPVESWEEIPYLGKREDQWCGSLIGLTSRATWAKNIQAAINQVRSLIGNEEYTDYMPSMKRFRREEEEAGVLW
Sequence of SUMO-activating enzyme (Q9UBE0 whole entry): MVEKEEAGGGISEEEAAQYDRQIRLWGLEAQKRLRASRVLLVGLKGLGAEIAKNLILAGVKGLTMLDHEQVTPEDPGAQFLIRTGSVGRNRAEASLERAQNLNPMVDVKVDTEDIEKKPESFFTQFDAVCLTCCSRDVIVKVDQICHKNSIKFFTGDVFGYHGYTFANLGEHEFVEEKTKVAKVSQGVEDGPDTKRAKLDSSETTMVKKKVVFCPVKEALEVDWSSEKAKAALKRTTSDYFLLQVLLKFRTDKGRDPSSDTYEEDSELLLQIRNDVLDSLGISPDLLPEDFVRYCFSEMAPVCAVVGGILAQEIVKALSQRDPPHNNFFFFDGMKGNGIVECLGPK
Sequence of SUMO-activating enzyme (Q9UBT2 whole entry): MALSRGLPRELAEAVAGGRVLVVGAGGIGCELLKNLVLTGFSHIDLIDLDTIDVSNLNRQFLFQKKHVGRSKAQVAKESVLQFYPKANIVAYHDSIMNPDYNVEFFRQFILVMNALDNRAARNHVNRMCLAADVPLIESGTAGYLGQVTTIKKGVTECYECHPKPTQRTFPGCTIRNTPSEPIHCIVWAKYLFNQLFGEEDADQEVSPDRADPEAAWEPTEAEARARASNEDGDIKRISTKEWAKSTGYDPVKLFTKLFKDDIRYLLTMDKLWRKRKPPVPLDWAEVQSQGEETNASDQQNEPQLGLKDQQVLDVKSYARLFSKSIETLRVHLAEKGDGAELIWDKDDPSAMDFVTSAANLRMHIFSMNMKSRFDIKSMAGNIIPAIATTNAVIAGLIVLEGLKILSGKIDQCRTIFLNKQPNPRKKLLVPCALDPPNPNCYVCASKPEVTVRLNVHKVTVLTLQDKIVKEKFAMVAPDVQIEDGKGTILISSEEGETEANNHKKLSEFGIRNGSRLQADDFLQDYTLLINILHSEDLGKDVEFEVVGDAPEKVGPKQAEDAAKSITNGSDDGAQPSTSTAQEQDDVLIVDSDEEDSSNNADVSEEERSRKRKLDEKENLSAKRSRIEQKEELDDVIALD

c1ccc2c(Nc3nnc(-c4ccncc4)s3)cccc2c1
EC50 [1]: 2.04 µM (active)
EC50 [2]: > 50 µM (active)
EC50 [3]: 1.59 µM (active)

N#Cc1c(O)nc(SCC(=O)N2c3ccccc3Sc3ccccc32)nc1-c1ccccc1
IC50 (SUMO-activating enzyme): 14.3 µM (active)
IC50 (Genome polyprotein): 38.9 µM (active)
IC50 [4]: 23.1 µM (inactive)

COc1cc(C(=O)c2nccc3cc(OC)c(OC)cc23)c([N+](=O)[O-])cc1OC
IC50 (Caspase-3): > 99 µM (inactive)
IC50 [5]: 66.8 µM (active)

N=C1S/C(=C\c2ccc(-c3ccccc3C(=O)O)o2)C(=O)N1c1ccc2c(c1)OCO2
IC50 [6]: 11.1 µM (active)
IC50 [7]: 153 µM (active)

— ChEMBL document CHEMBL1201862, “PubChem BioAssay data set” (2004)
